Assay results taken from PubChem BioAssay AID1259407 (Chemical Carcinogenesis Research Information System (CCRIS), 2018).
Active and inactive are the calls of the source. No rule for the calls is given here.

Tested on: CCRIS mutagenicity, Ames/micronucleus/aberration tests
Assay: CCRIS mutagenicity studies
Conditions: Test System: AMES SALMONELLA TYPHIMURIUM, Method: PREINCUBATION
[1] = Strain/Indicator: TA98, Metabolic Activation: NONE
[2] = Strain/Indicator: TA97, Metabolic Activation: NONE
[3] = Strain/Indicator: TA100, Metabolic Activation: NONE
[4] = Strain/Indicator: TA102, Metabolic Activation: NONE
[5] = Strain/Indicator: TA102, Metabolic Activation: RAT, LIVER, S-9, AROCLOR 1254

Measured: mutagenic call

O=C(O)[C@H]1OC(Oc2cccc3c2cc2ccc4cccc5ccc3c2c45)[C@H](O)[C@@H](O)[C@@H]1O (stereo not given in full)
inactive: [1] inactive; negative | Strain/Indicator: TA98, Metabolic Activation: RAT, LUNG, S-9 inactive; negative

CCCCOCCOCCSC#N
inactive: Strain/Indicator: TA97, Metabolic Activation: HAMSTER, LIVER, S-9, AROCLOR 1254 (10%) inactive; negative | Strain/Indicator: TA97, Metabolic Activation: HAMSTER, LIVER, S-9, AROCLOR 1254 (30%) inactive; negative | [2] inactive; negative | Strain/Indicator: TA97, Metabolic Activation: RAT, LIVER, S-9, AROCLOR 1254 (10%) inactive; negative | Strain/Indicator: TA97, Metabolic Activation: RAT, LIVER, S-9, AROCLOR 1254 (30%) inactive; negative | Strain/Indicator: TA98, Metabolic Activation: HAMSTER, LIVER, S-9, AROCLOR 1254 (10%) inactive; negative | Strain/Indicator: TA98, Metabolic Activation: HAMSTER, LIVER, S-9, AROCLOR 1254 (30%) inactive; negative | [1] inactive; negative | Strain/Indicator: TA98, Metabolic Activation: RAT, LIVER, S-9, AROCLOR 1254 (10%) inactive; negative | Strain/Indicator: TA98, Metabolic Activation: RAT, LIVER, S-9, AROCLOR 1254 (30%) inactive; negative | Strain/Indicator: TA100, Metabolic Activation: HAMSTER, LIVER, S-9, AROCLOR 1254 (10%) inactive; negative | Strain/Indicator: TA100, Metabolic Activation: HAMSTER, LIVER, S-9, AROCLOR 1254 (30%) inactive; negative | [3] inactive; negative | Strain/Indicator: TA100, Metabolic Activation: RAT, LIVER, S-9, AROCLOR 1254 (10%) inactive; negative | Strain/Indicator: TA100, Metabolic Activation: RAT, LIVER, S-9, AROCLOR 1254 (30%) inactive; negative | Strain/Indicator: TA1535, Metabolic Activation: HAMSTER, LIVER, S-9, AROCLOR 1254 (10%) inactive; negative | Strain/Indicator: TA1535, Metabolic Activation: HAMSTER, LIVER, S-9, AROCLOR 1254 (30%) inactive; negative | Strain/Indicator: TA1535, Metabolic Activation: NONE inactive; negative | Strain/Indicator: TA1535, Metabolic Activation: RAT, LIVER, S-9, AROCLOR 1254 (10%) inactive; negative | Strain/Indicator: TA1535, Metabolic Activation: RAT, LIVER, S-9, AROCLOR 1254 (30%) inactive; negative | Strain/Indicator: TA1537, Metabolic Activation: HAMSTER, LIVER, S-9, AROCLOR 1254 (30%) inactive; negative | Strain/Indicator: TA1537, Metabolic Activation: NONE inactive; negative | Strain/Indicator: TA1537, Metabolic Activation: RAT, LIVER, S-9, AROCLOR 1254 (30%) inactive; negative

Cc1ccsc1
inactive: [1] inactive; negative | Strain/Indicator: TA98, Metabolic Activation: RAT, LIVER, S-9, AROCLOR 1254 inactive; negative | [3] inactive; negative | Strain/Indicator: TA100, Metabolic Activation: RAT, LIVER, S-9, AROCLOR 1254 inactive; negative | [4] inactive; negative | [5] inactive; negative

CC(N)[13C](=O)O (stereo not given)
inactive: [2] inactive; negative | Strain/Indicator: TA97, Metabolic Activation: RAT, LIVER, S-9, AROCLOR 1254 inactive; negative | [4] inactive; negative | [5] inactive; negative
